According to US7338932B2, “Methods of modulating functions of polypeptide GalNAc-transferases and of screening test substances to find agents herefor, pharmaceutical compositions comprising such agents and the use of such agents for preparing medicaments” (Glycozym APS, priority 2000, dated 2008):
Entries after “also recorded” stand apart in the source; their conditions may differ.

Columns and labels:
GalNAc-T2 = target: T1, GalNAc-T2 (Homo sapiens, UniProt Q10471); assay: GalNAc-T2 transferase activities with UDP-GalNAc or UDP-Gal donor (Muc2 acceptor, peptide panel); type: biochemical; conditions: UDP-Gal donor; Muc2 substrate
T1 construct: Soluble, secreted expression constructs of human GalNAc-transferases GalNAc-T1, -T2, -T3, -T4, -T6, -T7, and -T11; made in house; host or cells: insect cells (baculovirus)
T1 sequence (Q10471 52-571 limits assumed): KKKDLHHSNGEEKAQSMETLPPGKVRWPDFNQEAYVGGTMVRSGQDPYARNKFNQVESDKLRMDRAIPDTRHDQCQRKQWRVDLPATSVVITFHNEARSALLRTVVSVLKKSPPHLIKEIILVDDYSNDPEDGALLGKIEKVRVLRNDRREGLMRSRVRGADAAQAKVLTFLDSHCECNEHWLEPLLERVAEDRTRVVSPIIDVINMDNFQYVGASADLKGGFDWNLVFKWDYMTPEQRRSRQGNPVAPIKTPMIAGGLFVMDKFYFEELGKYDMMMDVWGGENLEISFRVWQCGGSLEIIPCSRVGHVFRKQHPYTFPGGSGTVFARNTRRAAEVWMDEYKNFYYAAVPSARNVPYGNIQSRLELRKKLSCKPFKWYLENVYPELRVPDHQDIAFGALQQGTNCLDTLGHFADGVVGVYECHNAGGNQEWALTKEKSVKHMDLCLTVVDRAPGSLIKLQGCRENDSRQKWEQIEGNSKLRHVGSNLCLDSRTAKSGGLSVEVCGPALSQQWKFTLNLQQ
Procedure: (§1) Standard reaction mixtures (50 μl final volume) contained 25 mM cocadylate (pH 7.4), 10 mM MnCl2, 0.25% Triton X-100, 200 μM UDP-[^14C]-GalNAc (2,000 cpm/nmol) (Amersham), 200-500 μM acceptor peptides. Products were quantified by scintillation counting after chromatography on Dowex-1, octadecyl silica cartridges (Bakerbond), or HPLC (PC3.2/3 or mRPC C2/C18 SC2.1/10 Pharmacia, Smart System). […] Glycopeptides were purified on Supelclean LC-18 columns (1 ml, Supelco), and the number of GalNAc residues incorporated evaluated by MALDI-TOF mass spectrometry. The enzyme sources used were semipurified as previously described by successive sequential ion-exchange chromatographies on Amberlite (IRA95, Sigma) or DEAE Sephacel (Pharmacia), S-Sepharose Fast Flow (Pharmacia), and Mini-S™ (PC 3.2/3, Pharmacia) using the Smart System (Pharmacia) (28). Secreted GalNAc-T4 was obtained from a stably transfected CHO line (CHO/GalNA-T4/21A) (8) grown in roller bottles in HAMS F12 supplemented with 10% Fetal Bovine Serum. The experiments illustrated in FIG. 1 was performed with recombinant secreted GalNAc-T4 obtained from a stably transfected CHO line (8). Experiments illustrated in FIGS. 2 and 3 were performed with secreted GalNAc-T4 expressed in High Five cells grown in serum-free medium (8). Structural analysis of glycopeptides were performed by a combination of PFPA (pentafluoropropionic acid) hydrolysis and MALDI-TOF mass spectrometry as previously described (40). Secreted GalNAc-T7 was obtained from infected High Five™ cells grown in serum-free medium (Invitrogen) in upright roller bottles shaken 140 rpm in waterbaths at 27° C. GalNAc-T7 was not purified by Mini-S as the yields from cationic chromatography were low due to its low pI (6.4).
(§2) Galactosyl transferring activities of GalNAc-T1, -T2, and -T3, were assayed with a panel of acceptor peptides in standard reaction mixtures containing 100 μM UDP-Gal instead of UDP-GalNAc. […] Further, analysis was performed with 10 mM α-D-GalNAc-1-benzyl, αGlcNAc-benzyl, and fully occupied GalNAc-glycopeptide, GalNAC6TAP25, at 5 mM.

GalNAc-T3 = target: T2, GalNAc-T3 (Homo sapiens, UniProt Q14435); assay: GalNAc-T3 transferase activities with UDP-GalNAc or UDP-Gal donor (EA2 acceptor, peptide panel); type: biochemical; conditions: UDP-Gal donor; printed Muc2 substrate
T2 construct: Soluble, secreted expression constructs of human GalNAc-transferases GalNAc-T1, -T2, -T3, -T4, -T6, -T7, and -T11; made in house; host or cells: insect cells (baculovirus)
T2 sequence (Q14435 38-633 limits assumed): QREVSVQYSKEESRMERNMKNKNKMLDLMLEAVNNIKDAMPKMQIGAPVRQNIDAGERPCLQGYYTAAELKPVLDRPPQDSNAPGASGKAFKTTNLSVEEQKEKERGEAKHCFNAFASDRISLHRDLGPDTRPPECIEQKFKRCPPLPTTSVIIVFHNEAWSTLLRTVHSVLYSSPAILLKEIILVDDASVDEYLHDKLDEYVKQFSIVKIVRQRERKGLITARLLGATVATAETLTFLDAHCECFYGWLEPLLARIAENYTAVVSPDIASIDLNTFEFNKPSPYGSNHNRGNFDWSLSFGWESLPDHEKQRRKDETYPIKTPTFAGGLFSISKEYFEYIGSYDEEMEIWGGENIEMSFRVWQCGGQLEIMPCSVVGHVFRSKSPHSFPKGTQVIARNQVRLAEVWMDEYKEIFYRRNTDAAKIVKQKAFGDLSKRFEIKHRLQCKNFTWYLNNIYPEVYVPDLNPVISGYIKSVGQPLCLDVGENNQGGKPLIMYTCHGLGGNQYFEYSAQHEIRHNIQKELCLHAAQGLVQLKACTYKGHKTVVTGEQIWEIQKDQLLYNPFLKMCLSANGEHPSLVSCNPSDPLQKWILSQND
Procedure: as §1, §2

GalNAc-T4 [1] = assay: Glycosylation independent activity of GalNAc-T4 with naked peptides, MALDI-TOF; type: biochemical, human; conditions: GalNAc-T4 459D or 459H
Procedure: (§3) MALDI-TOF time-course in terminal reactions were performed in reactions of 25 μl containing 2.5 nmol acceptor (glyco)peptide, 40 nmol UDP-GalNAc, and 0.4 μg GalNAc-T4. Sampling of reactions (1 μl) were purified by nano-scale reversed-phase chromatography (Poros R3, PerSeptive Biosystem) and applied directly to the probe with matrix (41). The amount of GalNAc-transferase added was adjusted so that the reaction with the appropriate peptide was near completion in six hours. Reactions were incubated at 37° C. in a shaker bath. At times 0, 2 hours, and 16 hours a 1 μl aliquot was taken and purified. Mass spectra were acquired on either Voyager-DE mass spectrometer equipped with delayed extraction (Perseptive Biosystem Inc.). The matrix used was 2,5-dihydroxybenzoic acid (10 mg/ml, Hewlett-Packard) dissolved in a 2:1 mixture of 0.1% trifluoroacetic acid in 30% aqueous acetonitrile (Rathburn Ltd.).
Quantification of purified proteins was done by Coomassie stained SDS-PAGE and titration of immunoreactivity with the monoclonal antibody, UH6(4G2) (8). […] Wild-type GalNAc-T4 and mutant GalNAc-T4, GalNAc-T4^459H, were analysed with unglycosylated peptides (represented by PSGL-1) or GalNAc glycosylated glycopeptides (represented by GalNAc3TAP25V21) in reactions of 25 μl containing 2.5 nmol acceptor (glyco)peptide, 40 nmol UDP-GalNAc, and 0.4 μg GalNAc-T4. […]

GalNAc-T4 [2] = target: T3, GalNAc-T4 (Homo sapiens, UniProt Q8N4A0); assay: Inhibition of glycosylation dependent (GalNAc-glycopeptide) activity of GalNAc-T4, MALDI-TOF time-course; type: biochemical; conditions: […] free sugar
T3 construct: using the GalNAc-T4-sol construct that encodes residues 32-578 inserted into pT7T3U19; made in house; host or cells: High Five insect cells (baculovirus, pAcGP67)
T3 sequence (Q8N4A0 32-578): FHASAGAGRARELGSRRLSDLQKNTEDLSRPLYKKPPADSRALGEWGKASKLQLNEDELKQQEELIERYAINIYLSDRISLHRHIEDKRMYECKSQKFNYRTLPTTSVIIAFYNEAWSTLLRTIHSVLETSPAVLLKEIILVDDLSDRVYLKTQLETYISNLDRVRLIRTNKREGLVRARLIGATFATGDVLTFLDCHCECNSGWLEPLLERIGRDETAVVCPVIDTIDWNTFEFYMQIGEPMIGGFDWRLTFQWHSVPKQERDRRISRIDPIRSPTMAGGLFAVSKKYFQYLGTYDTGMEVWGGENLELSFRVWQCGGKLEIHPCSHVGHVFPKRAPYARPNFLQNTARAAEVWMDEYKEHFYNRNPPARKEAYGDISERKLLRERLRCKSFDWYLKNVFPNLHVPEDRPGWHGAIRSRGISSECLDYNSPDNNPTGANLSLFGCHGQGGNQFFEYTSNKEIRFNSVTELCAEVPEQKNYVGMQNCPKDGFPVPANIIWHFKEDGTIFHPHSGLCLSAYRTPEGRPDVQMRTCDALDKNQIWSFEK
Procedure: as §3
Quantification of purified proteins was done by Coomassie stained SDS-PAGE and titration of immunoreactivity with the monoclonal antibody, UH6(4G2) (8). […] Wild-type GalNAc-T4 and mutant GalNAc-T4, GalNAc-T4^459H, were analysed with unglycosylated peptides (represented by PSGL-1) or GalNAc glycosylated glycopeptides (represented by GalNAc3TAP25V21) in reactions of 25 μl containing 2.5 nmol acceptor (glyco)peptide, 40 nmol UDP-GalNAc, and 0.4 μg GalNAc-T4. Time-course assays were motioned by MALDI-TOF. Sampling of reactions (1 μl) were purified by nano-scale reversed-phase chromatography (Poros R3, PerSeptive Biosystem) and applied directly to the probe with matrix. Evaluation of inhibition of the glycopeptide specificity of wild-type GalNAc-T4 with free sugars was performed to establish if the lectin domain recognized carbohydrate. […] Further, analysis was performed with 10 mM α-D-GalNAc-1-benzyl, αGlcNAc-benzyl, and fully occupied GalNAc-glycopeptide, GalNAc6TAP25, at 5 mM.

[3] = system: CHOldlD/MUC1F-clone2 cells; assay: MUC1 expression in cell lysates, immunoprecipitation and SDS-PAGE western blot; type: cell-based, Chinese Hamster; conditions: 2 mM, 36 hours
Procedure: We next analysed the expression of MUC1 produced by CHOldlD/MUC1F-clone2 cells by SDS-PAGE western analysis. […] Cells were further treated with 2 mM GalNAcα-benzyl, GlcNAcα-benzyl or no inhibitor. Cells were washed and lysed at 24 or 48 hours and the lysates subjected to immunoprecipitation with monoclonal antibody HMFG2, which broadly recognize MUC1 glycoforms. Immunoprecipitates were analysed by SDS-PAGE and western blot using HMFG2 antibody to detect MUC1 expression. […] In striking contrast, treatment with GalNAcα-benzyl had significant effect after 48 hours. […] This indicates some heterogeneity in glycosylation.
As shown in Examples 8 and 9, polypeptide GalNAc-transferases contain lectin domains with binding properties for GalNAc-peptides including GalNAc-MUC1 peptides. […] GalNAcβ-benzyl, the β-anomeric configuration of GalNAc-benzyl (there is a β linkage between the N-acetylgalactosamine and the benzyl ring), was custom synthesized by Alberta Research Council (Canada), and its structure was confirmed by mass spectrometry and ^1H-NMR. […] Cells were then treated with 2 mM GalNAcα-benzyl, GalNAcβ-benzyl, or GlcNAcα-benzyl as control (GlcNAcα-benzyl was shown in Example 10 to have no effect). Cells were washed and lysed as described above after 36 hours and the lysates subjected to immunoprecipitation with anti-MUC1 monoclonal antibodies HMFG2 or 5E5. […] FIG. 17 illustrates the same experiments as in FIG. 16 except that the detection antibody is 5E5 and only Tn and STn MUC1 glycoforms are visualised.

[4] = system: wild type CHO/MUC1sol-cloneC4; assay: Secretion of MUC1, western blot of medium; type: cell-based, Chinese Hamster; conditions: 1-2 mM; compared to control treated or non-treated cells
Procedure: In order to characterize the secreted MUC1 product SDS-PAGE western blot analysis of harvested culture medium of confluent cultures were performed. Ten to twenty μL culture supernatant was analysed directly or treated with 0.1 U/mL neuraminidase (C. Perfringes VI, Sigma) for 30-60 min at 37° C. Samples were mixed with SDS sample buffer, reduced with DTT, and run on precast 4-20% gels (Biorad). As shown in FIG. 9 anti-MUC1 antibodies detected two forms of MUC1 in the medium; a low molecular weight form migrating as 130-140 kd corresponding to unglycosylated product, and a high molecular weight form migrating above 250 kd. The high molecular weight form was sensitive to neuraminidase treatment as evidenced by a marked shift and retardation in migration. […]
Because GalNAcα-benzyl exerts separate effects on O-glycan processing and mucin expression, the use of the novel selective inhibitor of mucin expression, GalNAcβ-benzyl, allow analysis of mucin expression and secretion in different cell line models. […] Most human adenocarcinoma cell lines express and secret mucins and analysis with antibodies to detect protein expression or probes to detect mRNA can reveal the types and quantities of mucins. […] The inhibitory effect on mucin secretion can be quantified by a number of assays known to the skilled in the art including western blot, ELISA, gelfiltration, immunocapture, and other assays.

GalNAc-T7 = target: T4, GalNAc-T7 (Homo sapiens, UniProt Q86SF2); assay: Inhibition of GalNAc-T7 activity with GalNAc2-3EA2 substrate; type: biochemical; conditions: 5 mM
T4 construct: made in house; host or cells: High Five insect cells (baculovirus)
T4 sequence (Q86SF2 30-657 limits assumed): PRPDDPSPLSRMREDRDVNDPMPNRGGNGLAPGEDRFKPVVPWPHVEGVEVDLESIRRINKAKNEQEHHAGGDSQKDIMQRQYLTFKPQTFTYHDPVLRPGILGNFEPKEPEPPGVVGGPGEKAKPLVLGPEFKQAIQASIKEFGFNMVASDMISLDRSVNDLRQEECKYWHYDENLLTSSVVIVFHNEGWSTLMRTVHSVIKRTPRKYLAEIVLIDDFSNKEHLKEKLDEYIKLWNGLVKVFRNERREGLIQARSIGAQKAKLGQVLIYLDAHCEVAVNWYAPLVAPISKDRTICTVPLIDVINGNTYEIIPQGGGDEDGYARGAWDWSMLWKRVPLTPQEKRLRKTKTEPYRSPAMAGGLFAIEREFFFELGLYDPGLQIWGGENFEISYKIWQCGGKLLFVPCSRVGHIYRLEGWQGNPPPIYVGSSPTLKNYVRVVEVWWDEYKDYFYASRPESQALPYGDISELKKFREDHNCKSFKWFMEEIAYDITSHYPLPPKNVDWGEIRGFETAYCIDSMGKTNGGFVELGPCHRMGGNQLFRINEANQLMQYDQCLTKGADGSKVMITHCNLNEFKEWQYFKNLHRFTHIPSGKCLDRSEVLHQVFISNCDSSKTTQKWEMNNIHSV
Procedure: as §1
GalNAc-T7 activity was analysed with GalNAc glycosylated glycopeptides (represented by GalNAc2-3EA2 (7)) in reactions of 25 μl containing 2.5 nmol acceptor (glyco)peptide, 40 nmol UDP-GalNAc, and purified GalNAc-T7. […]

CC(=O)N[C@H]1C(O)O[C@H](CO)[C@H](O)[C@@H]1O (stereo partly shown) [GalNAc, N-acetylgalactosamine]
Inhibition of galactosyltransferase activity of GalNAc-T2 (GalNAc-T2): selectively inhibited | Inhibition of galactosyltransferase activity of GalNAc-T3 (GalNAc-T3): selectively inhibited | Effect on glycosylation independent activities of GalNAc-T4 (GalNAc-T4 [1]): no effect | Inhibition of glycosylation dependent specificity of GalNAc-T4 (GalNAc-T4 [2]): almost completely inhibited

CC(=O)N[C@H]1[C@H](OCc2ccccc2)O[C@H](CO)[C@H](O)[C@@H]1O [GalNAcβ-benzyl, benzyl-2-acetamido-2-deoxy-β-D-galactopyranoside galactosamine]
MUC1 expression ([3]; blot 5E5, cells grown in GalNAc): strong inhibition; also recorded: same or better reduction in MUC1 expression | MUC1 expression ([3]; blot HMFG2, grown in GalNAc or Gal and GalNAc): same or better reduction in MUC1 expression | SDS-PAGE migration of MUC1 (O-glycosylation) ([3]; cells grown in Gal and GalNAc): no change in the migration of MUC1 | Secreted MUC1 in medium [4]: inhibition of secreted MUC1

CC(=O)N[C@H]1[C@@H](OCc2ccccc2)O[C@H](CO)[C@H](O)[C@@H]1O[C@@H]1O[C@H](CO)[C@H](O)[C@H](O)[C@H]1O [Galβ1-3GalNAcα1-bz]
Inhibition of GalNAc-T7 activity with GalNAc2-3EA2 (GalNAc-T7): significantly inhibited

OC[C@H]1O[C@@H](OCc2ccccc2)[C@H](O)[C@@H](O)[C@H]1O [bz-βGal]
Inhibition of GalNAc-T7 activity with GalNAc2-3EA2 (GalNAc-T7): significantly inhibited
